{"source": "ChEMBL document CHEMBL5465560", "about": "“Selectivity Literature for EUbOPEN Chemogenomic Library” (2024)", "key": {"[1]": {"biological_target": "Glycogen synthase kinase-3 alpha (Homo sapiens, UniProt P49840)", "sequence (P49840 2-483 limits assumed)": "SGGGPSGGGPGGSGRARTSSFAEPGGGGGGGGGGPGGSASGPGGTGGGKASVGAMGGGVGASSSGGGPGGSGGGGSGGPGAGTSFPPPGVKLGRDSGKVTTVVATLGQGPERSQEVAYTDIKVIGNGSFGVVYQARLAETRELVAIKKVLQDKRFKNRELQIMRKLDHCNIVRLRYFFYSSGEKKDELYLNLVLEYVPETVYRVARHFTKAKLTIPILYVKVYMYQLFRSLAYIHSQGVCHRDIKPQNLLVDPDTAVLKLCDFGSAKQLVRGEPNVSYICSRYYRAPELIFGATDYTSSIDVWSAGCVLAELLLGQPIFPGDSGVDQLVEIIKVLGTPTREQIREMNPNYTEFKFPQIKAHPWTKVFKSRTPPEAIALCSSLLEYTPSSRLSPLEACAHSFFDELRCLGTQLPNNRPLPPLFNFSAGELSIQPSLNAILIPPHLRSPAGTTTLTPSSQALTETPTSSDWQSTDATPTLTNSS", "test": "Selectivity interaction (KinomeScan (DiscoverX)) EUB0000229b GSK3A", "details": "at 10 µM"}, "[2]": {"biological_target": "T1, Tyrosine-protein kinase ITK/TSK (Homo sapiens) (UniProt Q08881)", "T1 sequence (whole entry)": "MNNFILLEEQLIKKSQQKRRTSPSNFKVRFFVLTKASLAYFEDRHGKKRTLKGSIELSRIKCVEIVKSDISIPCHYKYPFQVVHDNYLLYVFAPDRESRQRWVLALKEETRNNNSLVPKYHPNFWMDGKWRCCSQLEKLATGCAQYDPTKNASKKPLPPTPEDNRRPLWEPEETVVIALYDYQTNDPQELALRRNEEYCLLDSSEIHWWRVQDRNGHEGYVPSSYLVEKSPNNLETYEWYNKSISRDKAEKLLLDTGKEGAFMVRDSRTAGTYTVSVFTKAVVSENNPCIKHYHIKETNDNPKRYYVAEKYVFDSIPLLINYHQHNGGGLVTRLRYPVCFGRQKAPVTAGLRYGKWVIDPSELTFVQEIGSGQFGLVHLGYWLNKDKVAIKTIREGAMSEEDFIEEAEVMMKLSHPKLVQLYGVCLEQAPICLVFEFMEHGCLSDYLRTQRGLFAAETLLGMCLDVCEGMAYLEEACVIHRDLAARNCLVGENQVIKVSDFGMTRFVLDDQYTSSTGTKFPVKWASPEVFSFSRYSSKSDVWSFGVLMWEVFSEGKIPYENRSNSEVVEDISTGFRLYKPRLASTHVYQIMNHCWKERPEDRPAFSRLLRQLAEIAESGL", "test": "Selectivity interaction (ProQinase) EUB0000171b ITK"}, "[3]": {"biological_target": "D(1A) dopamine receptor (Homo sapiens, UniProt P21728)", "sequence (P21728 whole entry)": "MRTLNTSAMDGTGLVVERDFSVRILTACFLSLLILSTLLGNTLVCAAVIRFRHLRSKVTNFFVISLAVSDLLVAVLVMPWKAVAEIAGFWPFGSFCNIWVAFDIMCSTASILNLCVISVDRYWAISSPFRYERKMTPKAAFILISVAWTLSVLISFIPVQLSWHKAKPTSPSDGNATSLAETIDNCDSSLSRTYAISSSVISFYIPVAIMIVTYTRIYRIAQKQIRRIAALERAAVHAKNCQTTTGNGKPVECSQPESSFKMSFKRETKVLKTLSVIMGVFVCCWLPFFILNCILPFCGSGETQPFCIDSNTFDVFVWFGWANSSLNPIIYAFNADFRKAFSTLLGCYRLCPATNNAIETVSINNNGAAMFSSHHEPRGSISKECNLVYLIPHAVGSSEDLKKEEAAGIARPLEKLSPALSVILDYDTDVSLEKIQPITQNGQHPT", "test": "Selectivity interaction (Panel of kinases, GPCRs, ion channels and transporters (enzymatic assay)) EUB0000266bCl DRD1"}, "[4]": {"biological_target": "T2, Receptor-type tyrosine-protein kinase FLT3 (Homo sapiens, UniProt P36888)", "T2 sequence (P36888 whole entry)": "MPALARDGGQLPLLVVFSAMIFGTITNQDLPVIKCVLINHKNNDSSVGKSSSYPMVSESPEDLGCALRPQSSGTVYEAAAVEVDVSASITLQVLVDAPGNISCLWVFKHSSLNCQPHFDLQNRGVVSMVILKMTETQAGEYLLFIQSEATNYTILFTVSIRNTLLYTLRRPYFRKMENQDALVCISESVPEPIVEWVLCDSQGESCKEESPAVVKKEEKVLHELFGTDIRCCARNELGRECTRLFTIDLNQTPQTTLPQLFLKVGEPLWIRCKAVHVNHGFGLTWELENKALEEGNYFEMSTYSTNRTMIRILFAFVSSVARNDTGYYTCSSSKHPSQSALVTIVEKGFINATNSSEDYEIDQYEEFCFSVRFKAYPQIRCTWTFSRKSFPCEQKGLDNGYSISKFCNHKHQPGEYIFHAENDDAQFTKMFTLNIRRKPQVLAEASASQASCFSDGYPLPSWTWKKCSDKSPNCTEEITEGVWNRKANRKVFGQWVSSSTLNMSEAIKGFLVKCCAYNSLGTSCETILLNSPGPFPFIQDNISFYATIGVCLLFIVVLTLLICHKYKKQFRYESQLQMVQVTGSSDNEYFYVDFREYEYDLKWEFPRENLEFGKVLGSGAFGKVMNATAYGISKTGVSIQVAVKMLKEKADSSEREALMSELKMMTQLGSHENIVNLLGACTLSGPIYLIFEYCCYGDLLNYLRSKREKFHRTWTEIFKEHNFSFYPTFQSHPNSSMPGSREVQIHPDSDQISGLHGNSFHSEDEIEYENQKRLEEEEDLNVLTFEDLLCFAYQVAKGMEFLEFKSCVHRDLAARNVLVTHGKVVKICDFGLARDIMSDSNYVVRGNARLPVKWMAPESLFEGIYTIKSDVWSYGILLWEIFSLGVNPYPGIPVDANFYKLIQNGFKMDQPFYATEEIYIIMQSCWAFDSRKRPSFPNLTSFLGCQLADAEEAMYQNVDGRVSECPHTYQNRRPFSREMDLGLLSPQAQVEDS", "test": "Selectivity interaction (NanoBRET assay (HEK293T cells)) EUB0001559a FLT3", "type": "cell-based, HEK-293T"}, "[5]": {"biological_target": "Calcium/calmodulin-dependent protein kinase type II subunit delta (Homo sapiens) (UniProt Q13557)", "sequence (Q13557 whole entry)": "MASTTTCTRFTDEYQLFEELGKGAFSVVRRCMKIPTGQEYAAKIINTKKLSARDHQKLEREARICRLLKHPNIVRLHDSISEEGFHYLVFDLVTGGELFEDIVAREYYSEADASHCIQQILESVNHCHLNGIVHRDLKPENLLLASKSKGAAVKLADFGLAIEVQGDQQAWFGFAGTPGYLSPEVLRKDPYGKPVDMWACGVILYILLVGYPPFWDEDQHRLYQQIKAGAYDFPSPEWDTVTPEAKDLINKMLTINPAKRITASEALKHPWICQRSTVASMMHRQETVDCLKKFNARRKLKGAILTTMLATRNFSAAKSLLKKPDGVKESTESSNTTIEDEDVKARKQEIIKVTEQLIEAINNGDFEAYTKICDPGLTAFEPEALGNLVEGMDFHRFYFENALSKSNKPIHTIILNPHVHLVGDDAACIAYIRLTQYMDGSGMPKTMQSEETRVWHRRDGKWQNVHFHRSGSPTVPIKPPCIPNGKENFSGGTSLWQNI", "test": "Selectivity interaction (ActivX KiNativ screen (kinase selectivity in THP-1 cell lysates)) EUB0000639a CAMK2D", "type": "subcellular", "details": "lysate, at 0.04 µM"}, "[6]": {"biological_target": "Mitogen-activated protein kinase kinase kinase kinase 5 (Homo sapiens) (UniProt Q9Y4K4)", "sequence (Q9Y4K4 whole entry, looked up)": "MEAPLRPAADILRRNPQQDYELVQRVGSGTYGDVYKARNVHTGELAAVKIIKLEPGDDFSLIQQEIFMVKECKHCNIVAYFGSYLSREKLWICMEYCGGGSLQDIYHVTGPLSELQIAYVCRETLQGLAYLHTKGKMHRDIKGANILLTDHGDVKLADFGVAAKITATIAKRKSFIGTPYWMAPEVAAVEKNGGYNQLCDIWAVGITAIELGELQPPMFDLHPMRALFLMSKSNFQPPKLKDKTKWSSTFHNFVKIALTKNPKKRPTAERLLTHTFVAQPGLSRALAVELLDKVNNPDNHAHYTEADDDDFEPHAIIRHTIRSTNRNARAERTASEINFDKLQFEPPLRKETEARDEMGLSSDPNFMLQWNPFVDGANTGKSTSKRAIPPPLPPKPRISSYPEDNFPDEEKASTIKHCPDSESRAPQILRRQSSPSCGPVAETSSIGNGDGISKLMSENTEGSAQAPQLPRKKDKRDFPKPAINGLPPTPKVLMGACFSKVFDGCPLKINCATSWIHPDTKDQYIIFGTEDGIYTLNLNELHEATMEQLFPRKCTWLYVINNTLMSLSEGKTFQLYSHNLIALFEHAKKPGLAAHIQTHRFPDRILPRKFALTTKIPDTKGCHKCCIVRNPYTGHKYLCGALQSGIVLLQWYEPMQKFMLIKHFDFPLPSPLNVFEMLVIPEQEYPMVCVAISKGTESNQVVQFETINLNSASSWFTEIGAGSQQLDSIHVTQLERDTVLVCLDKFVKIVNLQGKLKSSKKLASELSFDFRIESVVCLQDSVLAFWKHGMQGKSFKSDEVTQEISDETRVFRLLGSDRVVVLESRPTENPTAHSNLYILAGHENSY", "test": "Selectivity interaction (ActivX KiNativ screen (kinase selectivity in THP-1 cell lysates)) EUB0000639a MAP4K5", "type": "subcellular", "details": "lysate"}, "[7]": {"tested_on": "Epidermal growth factor receptor (Homo sapiens), P00533 [UNDEFINED MUTATION]", "test": "Selectivity interaction (KinomeScan (DiscoverX)) EUB0000607a EGFR", "details": "at 10 µM"}, "[8]": {"biological_target": "Hepatocyte growth factor-like protein (Homo sapiens) (UniProt P26927)", "test": "Selectivity interaction (KinomeScan (DiscoverX)) EUB0000595a MST1", "details": "at 10 µM"}, "[9]": {"biological_target": "Rho-associated protein kinase 1 (Homo sapiens) (UniProt Q13464)", "sequence (Q13464 2-1354 limits assumed)": "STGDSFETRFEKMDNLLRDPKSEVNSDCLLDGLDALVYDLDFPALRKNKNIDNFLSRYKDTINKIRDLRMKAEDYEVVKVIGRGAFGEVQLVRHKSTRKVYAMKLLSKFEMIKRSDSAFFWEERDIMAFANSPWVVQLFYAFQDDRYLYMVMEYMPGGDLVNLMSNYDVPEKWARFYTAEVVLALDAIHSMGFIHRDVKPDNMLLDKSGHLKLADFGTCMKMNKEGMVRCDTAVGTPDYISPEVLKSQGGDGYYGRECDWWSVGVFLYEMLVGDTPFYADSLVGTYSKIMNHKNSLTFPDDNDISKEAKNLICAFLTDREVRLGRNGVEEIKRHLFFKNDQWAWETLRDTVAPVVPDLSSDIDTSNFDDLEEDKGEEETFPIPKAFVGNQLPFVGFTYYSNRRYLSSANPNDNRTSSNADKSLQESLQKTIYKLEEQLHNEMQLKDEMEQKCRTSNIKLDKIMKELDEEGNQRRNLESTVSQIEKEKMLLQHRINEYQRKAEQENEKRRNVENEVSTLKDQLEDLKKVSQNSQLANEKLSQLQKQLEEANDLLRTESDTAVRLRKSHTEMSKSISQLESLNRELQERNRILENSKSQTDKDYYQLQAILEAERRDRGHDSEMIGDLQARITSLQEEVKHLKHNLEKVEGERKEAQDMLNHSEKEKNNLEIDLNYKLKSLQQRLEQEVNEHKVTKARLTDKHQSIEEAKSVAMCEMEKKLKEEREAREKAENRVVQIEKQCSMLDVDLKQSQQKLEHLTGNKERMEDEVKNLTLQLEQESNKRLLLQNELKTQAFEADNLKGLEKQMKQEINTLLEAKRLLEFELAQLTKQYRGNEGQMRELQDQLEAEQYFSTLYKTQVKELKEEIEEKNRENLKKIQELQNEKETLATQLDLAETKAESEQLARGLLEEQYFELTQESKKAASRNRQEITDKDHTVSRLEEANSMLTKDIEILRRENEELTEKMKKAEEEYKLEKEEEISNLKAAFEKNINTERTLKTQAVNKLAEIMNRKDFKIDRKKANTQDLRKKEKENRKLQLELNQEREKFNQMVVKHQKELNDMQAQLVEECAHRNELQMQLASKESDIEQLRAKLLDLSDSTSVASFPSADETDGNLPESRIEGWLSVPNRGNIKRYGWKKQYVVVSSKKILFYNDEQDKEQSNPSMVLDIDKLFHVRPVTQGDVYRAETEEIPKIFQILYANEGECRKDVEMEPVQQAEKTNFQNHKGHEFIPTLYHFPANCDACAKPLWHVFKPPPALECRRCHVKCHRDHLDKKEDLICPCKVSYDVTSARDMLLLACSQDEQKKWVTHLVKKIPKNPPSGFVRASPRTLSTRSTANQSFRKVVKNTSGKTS", "test": "Selectivity interaction (KinomeScan (DiscoverX)) EUB0000045b ROCK1"}, "[10]": {"biological_target": "Cyclin-dependent kinase 18 (Homo sapiens) (UniProt Q07002)", "sequence (Q07002 whole entry)": "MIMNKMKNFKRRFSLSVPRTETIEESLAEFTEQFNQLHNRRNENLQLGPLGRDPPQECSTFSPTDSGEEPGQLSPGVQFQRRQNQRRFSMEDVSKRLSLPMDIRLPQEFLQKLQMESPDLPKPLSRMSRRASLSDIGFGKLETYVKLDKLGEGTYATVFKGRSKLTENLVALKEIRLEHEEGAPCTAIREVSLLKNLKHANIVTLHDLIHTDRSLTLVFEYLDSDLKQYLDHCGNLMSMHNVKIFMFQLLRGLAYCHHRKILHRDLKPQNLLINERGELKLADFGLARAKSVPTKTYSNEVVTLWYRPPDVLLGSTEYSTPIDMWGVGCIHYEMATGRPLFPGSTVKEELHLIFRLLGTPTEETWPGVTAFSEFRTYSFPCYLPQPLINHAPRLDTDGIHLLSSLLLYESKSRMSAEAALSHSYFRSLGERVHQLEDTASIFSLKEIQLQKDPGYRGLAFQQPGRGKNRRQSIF", "test": "Selectivity interaction (KinomeScan (DiscoverX)) EUB0000618a CDK18", "details": "at 10 µM"}, "[11]": {"biological_target": "Glycogen synthase kinase-3 beta (Homo sapiens, UniProt P49841)", "sequence (P49841 whole entry, looked up)": "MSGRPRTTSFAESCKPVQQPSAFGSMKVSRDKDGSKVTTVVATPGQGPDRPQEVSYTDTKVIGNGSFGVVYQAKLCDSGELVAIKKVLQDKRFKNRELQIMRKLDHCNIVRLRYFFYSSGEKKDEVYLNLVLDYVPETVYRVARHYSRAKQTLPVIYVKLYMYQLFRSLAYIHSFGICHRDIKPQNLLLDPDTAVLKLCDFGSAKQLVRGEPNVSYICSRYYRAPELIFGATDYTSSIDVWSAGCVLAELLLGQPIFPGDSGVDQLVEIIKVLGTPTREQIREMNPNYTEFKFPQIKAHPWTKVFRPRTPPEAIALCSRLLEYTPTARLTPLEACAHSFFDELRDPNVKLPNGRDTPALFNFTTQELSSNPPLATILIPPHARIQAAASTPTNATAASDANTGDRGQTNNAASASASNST", "test": "Selectivity interaction (KinomeScan (DiscoverX)) EUB0000618a GSK3B", "details": "at 10 µM"}, "[12]": {"biological_target": "T3, Histone-lysine N-methyltransferase SUV39H1 (Homo sapiens) (UniProt O43463)", "T3 sequence (whole entry)": "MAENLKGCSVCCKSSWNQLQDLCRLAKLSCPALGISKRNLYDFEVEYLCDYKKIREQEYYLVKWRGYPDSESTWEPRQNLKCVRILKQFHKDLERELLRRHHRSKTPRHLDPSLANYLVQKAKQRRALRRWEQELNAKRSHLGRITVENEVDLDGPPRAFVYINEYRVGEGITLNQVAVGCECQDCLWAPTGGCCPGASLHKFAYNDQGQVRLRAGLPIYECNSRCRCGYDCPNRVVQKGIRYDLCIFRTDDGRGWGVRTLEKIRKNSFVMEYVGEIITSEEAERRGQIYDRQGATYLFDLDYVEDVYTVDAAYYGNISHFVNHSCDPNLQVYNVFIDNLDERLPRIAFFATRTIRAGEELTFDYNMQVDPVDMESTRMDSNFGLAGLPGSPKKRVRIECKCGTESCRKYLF", "details": "at 1 µM"}, "[13]": {"biological_target": "Serine/threonine-protein kinase VRK2 (Homo sapiens) (UniProt Q86Y07)", "sequence (Q86Y07 whole entry)": "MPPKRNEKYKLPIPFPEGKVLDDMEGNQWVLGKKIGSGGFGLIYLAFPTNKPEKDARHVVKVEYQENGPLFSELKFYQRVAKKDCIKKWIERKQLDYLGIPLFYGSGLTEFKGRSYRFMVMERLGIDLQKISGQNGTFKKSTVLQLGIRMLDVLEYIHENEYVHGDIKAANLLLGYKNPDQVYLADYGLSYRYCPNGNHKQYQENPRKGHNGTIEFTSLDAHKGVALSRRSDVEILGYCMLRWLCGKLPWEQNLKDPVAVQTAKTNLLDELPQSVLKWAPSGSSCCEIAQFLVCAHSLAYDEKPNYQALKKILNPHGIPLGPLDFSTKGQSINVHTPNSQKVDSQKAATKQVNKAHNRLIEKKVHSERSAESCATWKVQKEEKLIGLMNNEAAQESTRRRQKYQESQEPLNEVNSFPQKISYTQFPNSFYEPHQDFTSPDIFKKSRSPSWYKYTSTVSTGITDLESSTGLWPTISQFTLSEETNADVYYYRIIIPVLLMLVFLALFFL", "test": "Selectivity interaction (KinomeScan (DiscoverX)) EUB0001619a VRK2", "details": "at 1 µM"}}, "data": [{"smiles": "COc1cc(N(C)c2ccnc3ccc(C(F)(F)F)cc23)cc(OC)c1OC", "values": [{"measurement": "% binding", "setting": "[1]", "value": 93, "unit": "%"}]}, {"smiles": "C=CC(=O)Nc1cccc(C(=O)Nc2ccc(Nc3cc(-c4[nH]c(SC)nc4C)ccn3)cc2)c1", "values": [{"measurement": "% of control", "setting": "[2]; at 1 µM", "value": 95, "unit": "%"}, {"measurement": "% of control", "setting": "[2]; at 5 µM", "value": 81, "unit": "%"}]}, {"smiles": "CCn1c(-c2nc3cc(C(=O)N4CCCC(N)C4)ccc3n2C)cc2ccccc21", "note": "(centres undefined)", "values": [{"measurement": "pXC50", "setting": "[3]", "value": 4.6, "unit": "M"}]}, {"smiles": "CN(C(=O)c1cnn2cccnc12)c1cc2c(cc1N1CCOCC1)C(=O)N(C[C@@H](F)C(C)(C)O)C2", "values": [{"measurement": "EC50", "setting": "[4]", "value": 3.6, "unit": "mM"}]}, {"smiles": "CC[C@@H]1[C@H](F)C(=O)N[C@@H]1COc1nccc2cc(C(N)=O)c(OC)cc12", "note": "[ZIMLOVISERTIB]", "values": [{"measurement": "% of inhibition", "setting": "[5]", "value": 16.7, "unit": "%"}, {"measurement": "% of inhibition", "setting": "[6]; at 0.01 µM", "value": -0.9, "unit": "%"}, {"measurement": "% of inhibition", "setting": "[6]; at 0.04 µM", "value": 0, "unit": "%"}, {"measurement": "% of inhibition", "setting": "[6]; at 0.2 µM", "value": 3.2, "unit": "%"}, {"measurement": "% of inhibition", "setting": "[6]; at 1 µM", "value": 9.9, "unit": "%"}, {"measurement": "% of inhibition", "setting": "[6]; at 5 µM", "value": 11.8, "unit": "%"}]}, {"smiles": "CNC(=O)Nc1ccc(-c2nc(N3CC4CCC(C3)O4)c3cnn(C4CCC5(CC4)OCCO5)c3n2)cc1", "values": [{"measurement": "% of control", "setting": "[7]", "value": 50, "unit": "%"}]}, {"smiles": "COCC(=O)NC/C=C/c1ccc2ncnc(Nc3ccc(Oc4ccc(C)nc4)c(C)c3)c2c1", "note": "[CP-724714]", "values": [{"measurement": "% of control", "setting": "[8]", "value": 87, "unit": "%"}]}, {"smiles": "C=CC(=O)Nc1cc(-n2c(=O)ccc3cnc4ccc(-c5ccc(NS(C)(=O)=O)cc5)cc4c32)ccc1C", "values": [{"measurement": "% of control", "setting": "[9]; at 1 µM", "value": 56, "unit": "%"}, {"measurement": "% of control", "setting": "[9]; at 10 µM", "value": 59, "unit": "%"}]}, {"smiles": "O[C@H]1CC[C@H](Nc2ncc3nc(Nc4c(F)cc(F)cc4F)n([C@H]4CCOC4)c3n2)CC1", "values": [{"measurement": "% of control", "setting": "[10]", "value": 100, "unit": "%"}, {"measurement": "% of control", "setting": "[11]", "value": 95, "unit": "%"}]}, {"smiles": "CNCCN1CCC(c2cc(CN(C)C(=O)c3cccc(Oc4ccccc4)c3)ccn2)CC1", "values": [{"measurement": "% activity", "setting": "[12]", "value": "> 90", "unit": "%"}]}, {"smiles": "N#Cc1cccc(-c2c[nH]c3ncnc(N4CCOCC4)c23)c1", "values": [{"measurement": "% of control", "setting": "[13]", "value": 100, "unit": "%"}]}]}
